# Results as given in US10940150B2, “Thymine derivatives and quinazoline-dione derivatives for the inhibition of HSP27” (TECHNISCHE UNIVERSITAET DRESDEN, priority 2014, dated 2021).
# Experiments:
# HSP27 = HSP27 (Homo sapiens, UniProt P04792); assay: Capillary electrophoresis of heat-denatured citrate synthase protein precipitates; assay type: biochemical; conditions: for Efficacy compared with BVDU: 10 μmol/L vs 750 μmol/L BVDU
# In short: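 Heat-denatured citrate synthase (1.44 μmol/L) with HSP27 (481 nmol/L) in 40 mmol/L HEPES pH 7.4; precipitates pelleted at 16,000×g, 10 min, room temperature, and quantified by capillary electrophoresis, BSA-normalized. Test substances at 10 μmol/L; precipitate relative to 750 μmol/L BVDU set at 1.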
# U937 cells = assay: Development of resistance to bortezomib in U937 cells; assay type: cell-based
# Protocol: For this purpose, U937 cells (histiocytic lymphoma) were cultured in DMEM culture medium (+10% FCS) at 37° C., 5% CO2 in an H2O-saturated atmosphere. 100,000 cells/ml were seeded and incubated with the cytostatic agent bortezomib (0.1 ng/ml) and the respective test substance (dosage in the current experiment: 1 μM/L acepromazine). The reference substance, BVDU, was employed at a concentration of 30 μM/L. The cells were in each case passaged before the cell count reached 1,000,000 cells/ml. At each passage, 100,000 cells/ml were again seeded and the dose of the cytostatic agent bortezomib was increased stepwise (0.1 ng/mL or 0.05 ng/mL). The concentration of the test substances remained constant. As a result of the stepwise increase in the dosage of the cytostatic agent, resistance developed in the U937 cells. The development of resistance is prevented or inhibited in the case of a positively tested HSP27 inhibitor. The experiments from Example 6 were repeated in the same way, wherein U937 cells (histiocytic lymphoma) are cultured in DMEM culture medium (+10% FCS) at 37° C., 5% CO2 in an H2O-saturated atmosphere. 100,000 cells/ml were seeded and incubated with an initial concentration of 0.2 ng/ml of the cytostatic agent bortezomib and both without an inhibitor and with acepromazine as an HSP27 inhibitor at a concentration of 1 μM/L. The reference substance, BVDU, was employed at a concentration of 30 μM/L. The cells were passaged in each case before the cell count reached 1,000,000 cells/ml. At each passage, 100,000 cells/ml were again seeded and the dose of the cytostatic agent bortezomib was increased stepwise by 0.1 ng/mL. The concentration of the test substance and the reference substance remained constant. As a result of the stepwise increase in the dosage of the cytostatic agent, resistance developed in the U937 cells. The development of resistance is prevented or inhibited in the case of a positively tested HSP27 inhibitor. The cell line U-937 is a histiocytic lymphoma (DSMZ ACC 5). This cell line also responds to treatment with bortezomib, expresses HSP27 and develops resistance to bortezomib. Bortezomib is not the standard therapy for this lymphoma, but is being discussed as a possible therapeutic agent. U-937 cells were seeded with a cell count of 100,000 cells/ml in each case and regularly passaged. […] At the end of the experiment, 70,000 living cells per ml medium could be detected. For the treatment with 30 μmol/L BVDU, a final cell count of 250,000 cells/ml was detected whereas the final cell count in the culture without the addition of an HSP27 inhibitor amounted to 450,000 cells/ml. As a control, U-937 cells were treated with the respective test substances alone, FIG. 10b.
# RPMI-8226 cells = assay: Development of resistance to bortezomib in RPMI-8226 cells; assay type: cell-based
# Protocol: The cell line RPMI-8226 (DMSZ 402) is a “multiple myeloma” cell line and was chosen because bortezomib is employed as a standard therapy for multiple myeloma. RPMI-8226 cells respond to bortezomib, express HSP27 and develop resistance to Velcade. RPMI-8226 cells were seeded at a cell count of 100,000 cells/ml in each case and regularly passaged. […] In contrast, for RPMI 8226 cells that were treated with 30 μmol/L BVDU, a final cell count of 160,000 cells/ml was detected whereas the final cell count for the culture without the addition of an HSP27 inhibitor amounted to 350,000 cells/ml. As a control, RPMI 8226 cells were treated with the respective test substances alone, FIG. 4b.
# [1] = tested on: late-stage pancreatic cancer patients; conditions: cited from earlier work
# Sequence of HSP27 (P04792 whole entry): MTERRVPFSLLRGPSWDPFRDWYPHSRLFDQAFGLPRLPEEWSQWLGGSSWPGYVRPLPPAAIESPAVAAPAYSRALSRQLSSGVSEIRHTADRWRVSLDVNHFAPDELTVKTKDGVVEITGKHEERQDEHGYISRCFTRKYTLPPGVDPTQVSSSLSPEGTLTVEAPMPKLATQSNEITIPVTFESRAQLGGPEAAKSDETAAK
smiles,measurement,setting,value
CC(=O)c1ccc2c(c1)N(CCCN(C)C)c1ccccc1S2 [Acepromazine],Efficacy compared with BVDU,HSP27; 43° C. for 120 minutes (Table 1),74.25 x
same,Efficacy compared with BVDU,HSP27; 43° C. for 120 minutes (Table 2),74.25 x
same,Rel. quantity of protein prec. CS,"HSP27; 10 μmol/L, 43° C. for 120 minutes, relative to 750 μmol/L BVDU = 1 (Table 1)",0.99
same,Rel. quantity of protein prec. CS,"HSP27; 10 μmol/L, 43° C. for 120 minutes, relative to 750 μmol/L BVDU = 1 (Table 2)",0.99
same,development of resistance to the cytostatic agent bortezomib,U937 cells; bortezomib 0.1-0.5 ng/ml + 0.75 μmol/L acepromazine (FIG. 10a),significantly inhibited
same,living cells at the end of the experiment,"U937 cells; bortezomib 0.1-0.5 ng/ml + 0.75 μmol/L acepromazine (FIG. 10a), without HSP27 inhibitor 450,000 cells/ml","70,000 living cells per ml medium"
same,development of resistance to bortezomib,U937 cells; bortezomib 0.1 to 0.5 ng/ml stepwise + 1 μM acepromazine (FIG. 2),no development of resistance occurred
same,living cells at the end of the experiment,"U937 cells; bortezomib 0.1 to 0.5 ng/ml stepwise + 1 μM acepromazine (FIG. 2), without HSP27 inhibitor 790,000 cells/ml",no living cells were detectable
same,development of resistance to bortezomib,U937 cells; bortezomib 0.2 to 0.4 ng/ml stepwise + 1 μM acepromazine (FIG. 3),no development of resistance occurred
same,living cells at the end of the experiment,"U937 cells; bortezomib 0.2 to 0.4 ng/ml stepwise + 1 μM acepromazine (FIG. 3), without HSP27 inhibitor 230,000 cells/ml",no living cells were detectable
same,development of resistance to the cytostatic agent bortezomib,RPMI-8226 cells; bortezomib 0.2-0.4 ng/ml + 0.75 μmol/L acepromazine (FIG. 4a),significantly inhibited
same,living cells at the end of the experiment,"RPMI-8226 cells; bortezomib 0.2-0.4 ng/ml + 0.75 μmol/L acepromazine (FIG. 4a), without HSP27 inhibitor 350,000 cells/ml","30,000 living cells per ml medium"
"O=c1[nH]c(=O)n([C@H]2C[C@H](O)[C@@H](CO)O2)cc1/C=C/Br [BVDU, (E)-5-(2-bromovinyl)-2′-deoxyuridine]",Rel. quantity of protein prec. CS,"HSP27; 750 μmol/L, 43° C. for 70 minutes, set at 1 (Table 3)",1
same,Rel. quantity of protein prec. CS,"HSP27; 750 μmol/L, 43° C. for 120 minutes, set at 1 (Table 1)",1
same,Rel. quantity of protein prec. CS,"HSP27; 750 μmol/L, 43° C. for 120 minutes, set at 1 (Table 2)",1
same,final cell count,"U937 cells; bortezomib 0.1-0.5 ng/ml + 30 μmol/L BVDU (FIG. 10a), without HSP27 inhibitor 450,000 cells/ml","250,000 cells/ml"
same,final cell count,"U937 cells; bortezomib 0.1-0.5 ng/ml + 30 μmol/L BVDU (FIG. 11a), without HSP27 inhibitor 450,000 cells/ml","250,000 cells/ml"
same,final cell count,"U937 cells; bortezomib 0.1 to 0.5 ng/ml stepwise + 30 μM BVDU (FIG. 2), without HSP27 inhibitor 790,000 cells/ml","430,000 cells/ml"
same,final cell count,"U937 cells; bortezomib 0.2 to 0.4 ng/ml stepwise + 30 μM BVDU (FIG. 3), without HSP27 inhibitor 230,000 cells/ml","60,000 cells/ml"
same,final cell count,"RPMI-8226 cells; bortezomib 0.075-0.275 ng/ml + 30 μmol/L BVDU (FIG. 9a), without HSP27 inhibitor 510,000 cells/ml","340,000 cells/ml"
same,final cell count,"RPMI-8226 cells; bortezomib 0.2-0.4 ng/ml + 30 μmol/L BVDU (FIG. 4a), without HSP27 inhibitor 350,000 cells/ml","160,000 cells/ml"
same,final cell count,"RPMI-8226 cells; bortezomib 0.2-0.4 ng/ml + 30 μmol/L BVDU (FIG. 5a), without HSP27 inhibitor 350,000 cells/ml","160,000 cells/ml"
same,safety and efficacy in patients,"[1]; administered dose of 500 mg/day, oral",works safely and efficiently
same,tolerability in low-weight patients,[1]; increased administered dose of 760 mg/day,proved disadvantageous for low-weight patients
